Results published in the CheMixHub viscosity set.

Assay: xn = mol fraction of the nth substance listed

CC(=O)O + CC(C)=O
viscosity [mPa·s], 101 kPa
Conditions	293.15 K	298.15 K	303.15 K	313.15 K
x1 = 0.0996	–	0.3496	–	–
x1 = 0.13	0.3909	–	0.3546	0.3238
x1 = 0.2035	–	0.4046	–	–
x1 = 0.222	0.4389	–	0.3976	0.3607
x1 = 0.302	0.4916	–	0.4411	0.3993
x1 = 0.3025	–	0.4636	–	–
x1 = 0.4025	0.5632	–	0.5015	0.4518
x1 = 0.4049	–	0.535	–	–
x1 = 0.4986	–	0.6098	–	–
x1 = 0.5066	0.6549	–	0.5766	0.5138
x1 = 0.5973	–	0.6994	–	–
x1 = 0.605	0.7515	–	0.6562	0.5817
x1 = 0.6968	–	0.8024	–	–
x1 = 0.6994	0.8612	–	0.7482	0.6564
x1 = 0.8015	–	0.9213	–	–
x1 = 0.805	0.9881	–	0.8527	0.7437
x1 = 0.9011	1.103	–	0.9472	0.8218
x1 = 0.9037	–	1.036	–	–

ClCCl + CC(C)=O
viscosity [mPa·s], 101 kPa
Conditions	x2 = 0.0866	x2 = 0.186	x2 = 0.3088	x2 = 0.3898	x2 = 0.4934	x2 = 0.5941	x2 = 0.6959	x2 = 0.8096	x2 = 0.899
293.15 K	0.439	0.436	0.423	0.412	0.4	0.388	0.374	0.358	0.339
298.15 K	0.422	0.417	0.405	0.396	0.383	0.37	0.357	0.343	0.327

CCC(C)Br (stereo unspecified) + CC(C)CO
viscosity [mPa·s], 101.3 kPa
Conditions	298.15 K	313.15 K
x1 = 0.0474	2.895	1.857
x1 = 0.102	2.431	1.596
x1 = 0.203	1.813	1.244
x1 = 0.3032	1.407	1.007
x1 = 0.4043	1.126	0.8382
x1 = 0.5066	0.9316	0.7176
x1 = 0.6053	0.7983	0.6315
x1 = 0.7043	0.7016	0.5696
x1 = 0.803	0.6311	0.5215
x1 = 0.8948	0.5854	0.4887
x1 = 0.9318	0.5716	0.4796

CCNc1ccccc1 + CC(C)CO
viscosity [mPa·s], 101 kPa
Conditions	303.15 K	308.15 K
x1 = 0.0756	2.789	2.414
x1 = 0.1356	2.742	2.38
x1 = 0.1958	2.695	2.348
x1 = 0.2654	2.637	2.307
x1 = 0.3214	2.588	2.27
x1 = 0.3956	2.517	2.215
x1 = 0.4565	2.454	2.16
x1 = 0.5202	2.384	2.106
x1 = 0.6021	2.284	2.029
x1 = 0.6745	2.194	1.956
x1 = 0.7325	2.116	1.889
x1 = 0.8025	2.019	1.811
x1 = 0.8869	1.903	1.714

CC(=O)O + CC(C)O
viscosity [mPa·s], 101 kPa
Conditions	x1 = 0.00598	x1 = 0.02919	x1 = 0.04037	x1 = 0.0567	x1 = 0.1073	x1 = 0.1528	x1 = 0.1938	x1 = 0.2308
298.15 K	2.633	2.564	2.503	2.435	2.286	2.221	2.133	2.058
308.15 K	1.962	1.906	1.877	1.843	1.75	1.696	1.651	1.621
318.15 K	1.521	1.491	1.474	1.454	1.4	1.363	1.33	1.306

CCOC=O + CC(C)O
viscosity [mPa·s], 100 kPa
Conditions	x1 = 0.0814	x1 = 0.1589	x1 = 0.2351	x1 = 0.3413	x1 = 0.4351	x1 = 0.5587	x1 = 0.6507	x1 = 0.7349	x1 = 0.8498	x1 = 0.9394
293.15 K	1.77	1.33	1.06	0.82	0.68	0.57	0.52	0.48	0.44	0.42
298.15 K	1.53	1.18	0.95	0.76	0.64	0.54	0.49	0.46	0.42	0.4
303.15 K	1.35	1.06	0.87	0.7	0.59	0.51	0.46	0.43	0.4	0.38
308.15 K	1.19	0.95	0.79	0.65	0.56	0.48	0.44	0.41	0.38	0.36
313.15 K	1.05	0.85	0.71	0.59	0.52	0.45	0.41	0.39	0.36	0.34
318.15 K	0.92	0.75	0.64	0.54	0.48	0.42	0.39	0.36	0.34	0.32
323.15 K	0.81	0.67	0.57	0.49	0.44	0.38	0.36	0.33	0.31	0.3
